The values that follow come from patent US20030104099A1, “Mineral delivery systems and methods” (priority 2001, published 2003).

Like-named read-outs stand apart in the source and are kept apart here.

For data set [1] the following is noted: for solids in 25 grams of the filtered solution after drying: 2 grams acid + 2 grams calcium carbonate in 50 grams distilled water, four hours, 25 grams dried; for water solubility at ambient: distilled water. As for the experimental part:
To a 250 ml beaker, 2 grams of adipic acid powder is dissolved in 50 grams of distilled water. Then, 2 grams of calcium carbonate powder (Vicron 25-11 FG from Specilaty Minerals, Inc.) are added. […] After four hours, the slurry is filtered through a filter paper.
To a 250 ml beaker, 2 grams of tartaric acid powder is dissolved in 50 grams of distilled water. Then, 2 grams of calcium carbonate powder are added. […] After four hours, the slurry is filtered through a filter paper.
To a 250 ml beaker, 2 grams of malic acid powder is dissolved in 50 grams of distilled water. Then, 2 grams of calcium carbonate powder are added. […] After four hours, the slurry is filtered through a filter paper.
To a 250 ml beaker, 2 grams of citric acid powder is dissolved in 50 grams of distilled water. Then, 2 grams of calcium carbonate powder are added. […] After four hours, the slurry is filtered through a filter paper.
To a 250 ml beaker, 2 grams of fumaric acid powder is dissolved in 50 grams of distilled water. Then, 2 grams of calcium carbonate powder are added. […] After four hours, the slurry is filtered through a filter paper.

The conditions of data set [2]: 120 grams distilled water, 3 grams acid, 39° C., 50 rpm, 30 minutes mixing, dried at 110° C.

Regarding `O=C([O-])/C=C/C(=O)[O-].[Ca+2]` [Calcium fumarate], the “solids in 25 grams of the filtered solution after drying” value (from here on “solids in 25 grams”) in data set [1] was 0.6 grams. Moreover, the “water solubility at ambient” value in data set [1] turned out to be 2.4%. For the same compound, the “soluble calcium salt contained in the fluid” value in data set [2] (75 grams ALPHA GRANDE bubble gum base) stood at 1.19%; in data set [2] (75 grams DREYCO gum base) it was 1.46%. In addition, the solubility in methanol result (solids from ALPHA GRANDE bubble gum base fluid) is “not soluble” and the solubility in methanol result (solids from DREYCO gum base fluid) is given as “not soluble”.

Turning to `O=C([O-])CC(O)C(=O)[O-].[Ca+2]` (stereo not drawn) [Calcium malate], in data set [1], the “solids in 25 grams” value turned out to be 0.5 grams and the “water solubility at ambient” value is on record as 2.0%.

For the compound `O=C([O-])C(O)C(O)C(=O)[O-].[Ca+2]` (stereo not drawn) [Calcium tartrate], the “solids in 25 grams” value in data set [1] was 0.15 grams.
